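Tested at 5 concentrations; 48 h exposure; 96-well plates; endpoints linearly interpolated, else capped at highest concentration. GI50 is the concentration that inhibits growth by half.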 Active and inactive are the calls of the source. Rule as the data show it: active = GI50 up to about 1.1 µM and inactive = higher.
Columns and labels:
Test in all cases: NCI-60 cell line screen, 48 h
786-0 = test system: 786-0
BT-549 = test system: BT-549
CCRF-CEM = test system: CCRF-CEM
DU-145 = test system: DU-145
HCC 2998 = test system: HCC 2998
HCT-15 = test system: HCT-15
IGROV-1 = test system: IGROV-1
KM-20L2 = test system: KM-20L2
MCF7 = test system: MCF7
Malme-3M = test system: Malme-3M
OVCAR-3 = test system: OVCAR-3
SF-268 = test system: SF-268
SF-295 = test system: SF-295
SK-MEL-28 = test system: SK-MEL-28
SK-MEL-5 = test system: SK-MEL-5
SN12C = test system: SN12C
SNB-19 = test system: SNB-19
T47D = test system: T47D
UACC-257 = test system: UACC-257
MDA-MB-231 = test system: MDA-MB-231

Row | SMILES | GI50 (786-0) | GI50 (BT-549) | GI50 (CCRF-CEM) | GI50 (DU-145) | GI50 (HCC 2998) | GI50 (HCT-15) [µM] | GI50 (IGROV-1) | GI50 (KM-20L2) | GI50 (MCF7) | GI50 (Malme-3M) | GI50 (OVCAR-3) | GI50 (SF-268) | GI50 (SF-295) | GI50 (SK-MEL-28) | GI50 (SK-MEL-5) | GI50 (SN12C) | GI50 (SNB-19) | GI50 (T47D) | GI50 (UACC-257) | GI50 (MDA-MB-231)
1 | COc1ccc2c(c1)c(=O)c1c(NCCCN(C)C)ccc3ncn2c31 | 1.68 µM (inactive) | 17.6 µM (inactive) | 1.61 µM (inactive) | 4.66 µM (inactive) | 3.05 µM (inactive) | 1.44 | 3.5 µM (inactive) | 1.12 µM (inactive) | 0.714 µM (active) | 11.6 µM (inactive) | 10.4 µM (inactive) | 1.31 µM (inactive) | 1.47 µM (inactive) | 13.2 µM (inactive) | 7.67 µM (inactive) | 1.72 µM (inactive) | 3.95 µM (inactive) | 16.3 µM (inactive) | 12.2 µM (inactive) | 
2 | COc1cccc2c1C(=O)OC2c1cccc2ccccc12 (stereo not drawn) | 50.8 µM (inactive) | > 100 µM (inactive) | > 100 µM (inactive) | > 100 µM (inactive) | > 100 µM (inactive) | > 100 | > 100 µM (inactive) | > 100 µM (inactive) | 31.6 µM (inactive) | > 100 µM (inactive) | 74.8 µM (inactive) | 72.8 µM (inactive) | 33.6 µM (inactive) | > 100 µM (inactive) | > 100 µM (inactive) | > 100 µM (inactive) | 61.2 µM (inactive) | > 100 µM (inactive) | > 91 µM (inactive) | 36.4 µM (inactive)
3 | CS/C(c1ccccc1)=[N+](\[O-])Cc1ccccc1 | > 100 µM (inactive) |  | 39.4 µM (inactive) |  | > 100 µM (inactive) | 16.7 | > 100 µM (inactive) | > 100 µM (inactive) |  | > 100 µM (inactive) | > 100 µM (inactive) | > 100 µM (inactive) | > 100 µM (inactive) | > 100 µM (inactive) | > 100 µM (inactive) | > 100 µM (inactive) | > 100 µM (inactive) |  | > 100 µM (inactive) | 
4 | CC(=O)OC1C(O)C(C)OC(OC2C(OC(=O)C3CCC4C(C3)OC3(CC(OC(=O)/C=C/c5ccccc5)C(C)CO3)C43CO3)OC(C)C(O)C2OC(C)=O)C1O (stereo not drawn) | 0.0132 µM (active) | 0.00358 µM (active) | 0.00351 µM (active) | 0.0103 µM (active) | 0.00358 µM (active) | 0.718 | 0.0134 µM (active) | 0.041 µM (active) | 0.00429 µM (active) | 0.00507 µM (active) | 0.0115 µM (active) | 0.00849 µM (active) | 0.0262 µM (active) | 0.008 µM (active) | 0.00418 µM (active) | 0.0203 µM (active) | 0.00617 µM (active) | 0.00216 µM (active) | 0.0205 µM (active) | 0.0203 µM (active)
5 | COC(=O)c1ccccc1NC(=O)C(=O)CC(=O)c1ccccc1NC1=CC(=O)C(=O)c2ccccc21 | 5.65 µM (inactive) | 15.2 µM (inactive) | 3.17 µM (inactive) | 23.2 µM (inactive) | 25.6 µM (inactive) | 5.65 | 13.2 µM (inactive) | 72.9 µM (inactive) | 8.87 µM (inactive) | 3.02 µM (inactive) | 1.78 µM (inactive) | 5.96 µM (inactive) | 15.6 µM (inactive) | 13.1 µM (inactive) | 5.13 µM (inactive) | 3.94 µM (inactive) | 20.2 µM (inactive) | 18.7 µM (inactive) | 6.05 µM (inactive) | 3.4 µM (inactive)
6 | CC1OC(OC2C(OC(=O)[C@]34CCC(C)(C)CC3C3=CCC5[C@@]6(C)C[C@H](O)[C@H](OC7OC(CO)C(O)C(O)C7N)[C@@](C)(C(=O)O)C6CC[C@@]5(C)C3(C)CC4)OCC(O)C2O)C(O)C(O)C1OC1OCC(O)C(O)C1O (stereo partly drawn) | > 100 µM (inactive) |  | > 100 µM (inactive) |  | > 100 µM (inactive) | > 100 | > 100 µM (inactive) | > 100 µM (inactive) |  | > 100 µM (inactive) | > 100 µM (inactive) | > 100 µM (inactive) | > 100 µM (inactive) | > 100 µM (inactive) | > 100 µM (inactive) | > 100 µM (inactive) | > 100 µM (inactive) |  | > 100 µM (inactive) | 
7 | CC(C)C(NCc1c2ccccc2[n+](C)c2ccccc12)C(=O)O (stereo not drawn) | 4.66 µM (inactive) |  | 0.627 µM (active) |  | 14.8 µM (inactive) | 3.68 | 8.59 µM (inactive) | 2.78 µM (inactive) |  | 6.62 µM (inactive) | 5.81 µM (inactive) | 2.99 µM (inactive) | 6.76 µM (inactive) | 12.9 µM (inactive) | 3.31 µM (inactive) | 5.58 µM (inactive) | 15.5 µM (inactive) |  | 5.51 µM (inactive) | 
8 | O=C(NC1=C(Cl)C(=O)c2ccccc2C1=O)C(=O)C(C(=O)c1ccc2ccccc2c1)C1OC(=O)c2ccccc21 (stereo not drawn) | 5.92 µM (inactive) | 3.48 µM (inactive) | 2.87 µM (inactive) | 10.6 µM (inactive) | 9.55 µM (inactive) | 3.77 | 7.73 µM (inactive) | 4.52 µM (inactive) | 2.74 µM (inactive) | 1.7 µM (inactive) | 2.7 µM (inactive) | 4.53 µM (inactive) | 3.3 µM (inactive) | 4.59 µM (inactive) | 0.564 µM (active) | 4.36 µM (inactive) | 6.03 µM (inactive) | 5.35 µM (inactive) | 2.19 µM (inactive) | 
